Data reported in patent publication US20050202549A1, “Crystal structure” (Pfizer Inc, priority 2001, published 2005).

What was measured:
[1] = biological target: T1, wild-type PDE5 catalytic domain (Homo sapiens, UniProt O76074); test: X-ray structure of wild-type PDE5 catalytic domain complexed with Sildenafil; settings: X-ray structure of wild-type PDE5 complex; binding in the active site, blocking access for the cGMP substrate
T1 construct: Construction and Expression of PDE5 Wild-type Catalytic Domain (E534-N875); made in house; host or cells: baculovirus / insect cells (pFastbac1; Sf-9 for virus stocks, T.ni High5 named for expression)

[2] = biological target: T2, PDE5* (loop-swapped PDE5 catalytic domain) (Homo sapiens, UniProt O76074, C677D/E669N/H670S/H678E/I665L/I680V/INS676N/L675M/M681L/N661S/P671E/Q666I/Q674L/R658P/R667N/S663Q/S668T/Y664F); test: Soaking of inhibitor into C2 crystal form of PDE5* and X-ray structure determination; type: binding
T2 construct: Construction and Expression of PDE5* (E534-E858) in E. coli; made in house; host or cells: E. coli BL21 (DE3), pET21C
Protocol: Plate-shaped crystals of apo PDE5* obtained according to methods detailed in EXAMPLE 6 were transferred to a 20 μl drop of 0.1M sodium HEPES and 20% Polyethylene glycol 4000 in square microbridges. To this, 1.0 μl of a 20 mg/ml concentration of inhibitor dissolved in DMSO was added. Crystals were then transferred to a solution of 0.1M sodium HEPES pH 7.4, 20% Polyethylene glycol 4000 with 15% glycerol and then frozen during X-ray data collection.
X-ray diffraction data were collected with an RaxisIV image plate detector on an in-house FR-D rotating anode (Rigaku), with Osmic mirrors (MSC). All data were processed using the HKL package (Otwinowski & Minor, 1997).
Refinement was carried out in the resolution range 30-1.5 Å using CNX (Brünger et al., 1998) with the “mlf” maximum likelihood target function. Partial structure factors from a flat bulk-solvent model and anisotropic B-factor correction were supplied throughout the refinement.

CCCc1nn(C)c2c(=O)[nH]c(-c3cc(S(=O)(=O)N4CCN(C)CC4)ccc3OCC)nc12 [Sildenafil, 5-[2-ethoxy-5-(4-methyl-1-piperazinylsulphonyl)phenyl]-1-methyl-3-n-propyl-1,6-dihydro-7H-pyrazolo[4,3-d]pyrimidin-7-one]
mode of inhibition [1]: competitive

CCCc1nn(C)c2c(=O)[nH]c(-c3ccccc3OCC)nc12 [UK-088,800, 5-(2-ethoxyphenyl)-1-methyl-3-propyl-1,6-dihydro-7H-pyrazolo[4,3-d]pyrimidin-7-one]
(fo-fc) electron density map at the active site region ([2]; PDE5* C2 crystal soaked with ligand, map contoured at 2.5σ, phases prior to incorporation of ligand): clearly featured peak | mode of inhibition ([2]; X-ray structure of PDE5* complex, binding in the active site, blocking access for the cGMP substrate): competitive
